Laboratory results from ChEMBL document CHEMBL1201862, “PubChem BioAssay data set” (2004).
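Dose response: 5 concentrations. Exposure: 48 h. Format: 96-well plates. Endpoint: linear interpolation; highest concentration if not reached. GI50 marks 50% less growth.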 Calls of active or inactive are those of the source. Cut-off read from the data, not from the text of the source: active = GI50 up to about 1.1 µM and inactive = higher.

Legend:
Assay in all cases: NCI tumour cell line growth inhibition, 48 h
K562 = system: K562
M14 = system: M14
NCI-H522 = system: NCI-H522
MDA-MB-231 = system: MDA-MB-231
SNB-19 = system: SNB-19
786-0 = system: 786-0
CAKI-1 = system: CAKI-1
SK-MEL-5 = system: SK-MEL-5
MCF7 = system: MCF7
COLO 205 = system: COLO 205
OVCAR-3 = system: OVCAR-3
HCC 2998 = system: HCC 2998
SN12C = system: SN12C
LOX IMVI = system: LOX IMVI
OVCAR-5 = system: OVCAR-5
T47D = system: T47D
HL-60 = system: HL-60
KM12 = system: KM12
UO-31 = system: UO-31
SK-MEL-2 = system: SK-MEL-2
MDA-N = system: MDA-N
U-251 = system: U-251
PC-3 = system: PC-3
HOP-92 = system: HOP-92
TK-10 = system: TK-10
UACC-62 = system: UACC-62
IGROV-1 = system: IGROV-1
HCT-15 = system: HCT-15
OVCAR-8 = system: OVCAR-8
SK-OV-3 = system: SK-OV-3
EKVX = system: EKVX
OVCAR-4 = system: OVCAR-4
SNB-75 = system: SNB-75
ACHN = system: ACHN
RXF 393 = system: RXF 393
A498 = system: A498
SW-620 = system: SW-620
SF-295 = system: SF-295
HOP-62 = system: HOP-62
SF-539 = system: SF-539
Hs-578T = system: Hs-578T
SK-MEL-28 = system: SK-MEL-28
SF-268 = system: SF-268
DU-145 = system: DU-145
CCRF-CEM = system: CCRF-CEM
NCI/ADR-RES = system: NCI/ADR-RES
MDA-MB-435 = system: MDA-MB-435
NCI-H23 = system: NCI-H23
UACC-257 = system: UACC-257
HT-29 = system: HT-29
RPMI-8226 = system: RPMI-8226
MOLT-4 = system: MOLT-4
SR = system: SR
Malme-3M = system: Malme-3M
NCI-H460 = system: NCI-H460
BT-549 = system: BT-549
A549 = system: A549
HCT-116 = system: HCT-116
NCI-H226 = system: NCI-H226

In the case of `O=[N+]([O-])c1ccc(-c2cc(O)c3nc4ccccc4n3c2)cc1`, the GI50 (K562) is reported as > 100 µM (inactive), the GI50 (M14) is reported as > 100 µM (inactive) and the GI50 (NCI-H522) is reported as > 93.1 µM (inactive). For the same molecule, the GI50 (MDA-MB-231) was > 100 µM (inactive), the GI50 (SNB-19) was > 53.7 µM (inactive) and the GI50 (786-0) was > 90.6 µM (inactive). The GI50 (CAKI-1) was > 100 µM (inactive), the GI50 (SK-MEL-5) was > 100 µM (inactive) and the GI50 (MCF7) was > 84.7 µM (inactive). The GI50 (COLO 205) was > 100 µM (inactive), the GI50 (OVCAR-3) was > 100 µM (inactive) and the GI50 (HCC 2998) was > 100 µM (inactive). For the same molecule, the GI50 (SN12C) was > 100 µM (inactive), the GI50 (LOX IMVI) was > 100 µM (inactive) and the GI50 (OVCAR-5) was > 100 µM (inactive). For the same molecule, the GI50 (T47D) was 74 µM (inactive), the GI50 (HL-60) was > 100 µM (inactive) and the GI50 (KM12) was > 100 µM (inactive). For the same molecule, the GI50 (UO-31) was > 91.4 µM (inactive), the GI50 (SK-MEL-2) was > 100 µM (inactive) and the GI50 (MDA-N) was > 100 µM (inactive). The GI50 (U-251) was 28.1 µM (inactive), the GI50 (PC-3) was > 100 µM (inactive) and the GI50 (HOP-92) was > 65.9 µM (inactive). For the same molecule, the GI50 (TK-10) was > 100 µM (inactive), the GI50 (UACC-62) was > 31.6 µM (inactive) and the GI50 (IGROV-1) was > 100 µM (inactive). The GI50 (HCT-15) was greater than 100 µM, the GI50 (OVCAR-8) was 60.1 µM (inactive) and the GI50 (SK-OV-3) was 22.8 µM (inactive). The GI50 (EKVX) was > 100 µM (inactive), the GI50 (OVCAR-4) was > 100 µM (inactive) and the GI50 (SNB-75) was > 40.9 µM (inactive). The GI50 (ACHN) was 65.2 µM (inactive), the GI50 (RXF 393) was > 100 µM (inactive) and the GI50 (A498) was > 100 µM (inactive). For the same molecule, the GI50 (SW-620) was > 100 µM (inactive), the GI50 (SF-295) was > 100 µM (inactive) and the GI50 (HOP-62) was 28.6 µM (inactive). For the same molecule, the GI50 (SF-539) was > 100 µM (inactive), the GI50 (Hs-578T) was > 100 µM (inactive) and the GI50 (SK-MEL-28) was > 100 µM (inactive). For the same molecule, the GI50 (SF-268) was > 56.5 µM (inactive), the GI50 (DU-145) was > 100 µM (inactive) and the GI50 (CCRF-CEM) was > 100 µM (inactive). The GI50 (NCI/ADR-RES) was > 100 µM (inactive), the GI50 (MDA-MB-435) was > 31.6 µM (inactive) and the GI50 (NCI-H23) was > 100 µM (inactive). The GI50 (UACC-257) was > 100 µM (inactive), the GI50 (HT-29) was > 100 µM (inactive) and the GI50 (RPMI-8226) was > 100 µM (inactive). The GI50 (MOLT-4) was > 100 µM (inactive), the GI50 (SR) was > 100 µM (inactive) and the GI50 (Malme-3M) was > 100 µM (inactive). For the same molecule, the GI50 (NCI-H460) was > 100 µM (inactive), the GI50 (BT-549) was > 100 µM (inactive) and the GI50 (A549) was > 100 µM (inactive). The GI50 (HCT-116) was > 100 µM (inactive) and the GI50 (NCI-H226) was > 100 µM (inactive).

With `COc1ccc(-c2cc(=O)c3ccc(O)cc3o2)cc1OC` the GI50 (K562) was 30 µM (inactive), the GI50 (M14) was 72.8 µM (inactive) and the GI50 (NCI-H522) was 16.6 µM (inactive). The GI50 (MDA-MB-231) was 77.4 µM (inactive), the GI50 (SNB-19) was 35.6 µM (inactive) and the GI50 (786-0) was 56.9 µM (inactive). The GI50 (CAKI-1) was 25.7 µM (inactive), the GI50 (SK-MEL-5) was 15.2 µM (inactive) and the GI50 (MCF7) was 25.8 µM (inactive). The GI50 (COLO 205) was 68.4 µM (inactive), the GI50 (OVCAR-3) was 57.3 µM (inactive) and the GI50 (HCC 2998) was 46.9 µM (inactive). The GI50 (SN12C) was 41.3 µM (inactive), the GI50 (LOX IMVI) was 33.5 µM (inactive) and the GI50 (OVCAR-5) was > 100 µM (inactive). The GI50 (T47D) was 25.9 µM (inactive), the GI50 (HL-60) was 23.5 µM (inactive) and the GI50 (KM12) was 59.3 µM (inactive). For the same molecule, the GI50 (SK-MEL-2) was > 100 µM (inactive), the GI50 (MDA-N) was 47.6 µM (inactive) and the GI50 (U-251) was 43.9 µM (inactive). For the same molecule, the GI50 (PC-3) was 32.3 µM (inactive), the GI50 (HOP-92) was 56.6 µM (inactive) and the GI50 (TK-10) was 59.3 µM (inactive). The GI50 (UACC-62) was 33.8 µM (inactive), the GI50 (IGROV-1) was 32.9 µM (inactive) and the GI50 (HCT-15) was 32.4 µM. For the same molecule, the GI50 (OVCAR-8) was 37.4 µM (inactive), the GI50 (SK-OV-3) was 41.4 µM (inactive) and the GI50 (EKVX) was 43.7 µM (inactive). The GI50 (OVCAR-4) was 24.7 µM (inactive), the GI50 (SNB-75) was 10.2 µM (inactive) and the GI50 (ACHN) was 48.9 µM (inactive). For the same molecule, the GI50 (RXF 393) was 5.85 µM (inactive), the GI50 (A498) was 34 µM (inactive) and the GI50 (SW-620) was 37.8 µM (inactive). For the same molecule, the GI50 (SF-295) was 31.3 µM (inactive), the GI50 (HOP-62) was 25.5 µM (inactive) and the GI50 (SF-539) was 23.4 µM (inactive). The GI50 (Hs-578T) was 32.7 µM (inactive), the GI50 (SK-MEL-28) was 71.9 µM (inactive) and the GI50 (SF-268) was > 100 µM (inactive). For the same molecule, the GI50 (DU-145) was 48 µM (inactive), the GI50 (CCRF-CEM) was 25.8 µM (inactive) and the GI50 (NCI/ADR-RES) was 34.9 µM (inactive). The GI50 (MDA-MB-435) was 45.5 µM (inactive), the GI50 (NCI-H23) was 52.1 µM (inactive) and the GI50 (UACC-257) was > 100 µM (inactive). For the same molecule, the GI50 (HT-29) was 41.8 µM (inactive), the GI50 (RPMI-8226) was 22.8 µM (inactive) and the GI50 (MOLT-4) was 25.6 µM (inactive). The GI50 (SR) was 13 µM (inactive), the GI50 (Malme-3M) was 67.1 µM (inactive) and the GI50 (NCI-H460) was 25.5 µM (inactive). For the same molecule, the GI50 (BT-549) was 46.5 µM (inactive), the GI50 (A549) was 38.5 µM (inactive) and the GI50 (HCT-116) was 30.2 µM (inactive). The GI50 (NCI-H226) was > 100 µM (inactive).
